Data taken from ChEMBL document CHEMBL5052843, “Inhibitors of apol1 and methods of using same” (2020).
pIC50: −log10 of the molar value.

Experiments:
[1] = test system: Trypanosoma brucei brucei; test: Antitrypanosomal activity against Trypanosoma brucei brucei assessed as trypanosome lysis using recombinant APOL1 protein G1 variant and measured by Alamar blue based fluorescene assay; format: functional, organism-based
Apolipoprotein L1 = Apolipoprotein L1 (Homo sapiens, UniProt O14791); test: Inhibition of APOL1 G1 variant in human HEK293-T-REx cells measured by Thallium assay; format: cell-based

Row | Structure (SMILES) | pIC50 [1] | pIC50 (Apolipoprotein L1)
1 | O=C(CCc1c(-c2ccccc2)[nH]c2c(F)cccc12)N[C@@H]1C(=O)NC[C@H]1O | > 6.60 | > 6.60
2 | O=C(CCc1c(-c2ccccc2)[nH]c2cc(F)c(F)cc12)N[C@@H]1C(=O)NC[C@H]1O | > 6.60 | > 6.60
3 | COc1ccc(-c2[nH]c3ccccc3c2CCC(=O)N[C@@H]2C(=O)NC[C@H]2O)cc1 | > 6.60 | > 6.60
4 | O=C(CCc1c(-c2cc(F)cc(F)c2)[nH]c2c(F)cc(F)cc12)N[C@@H]1C(=O)NC[C@H]1O | 6.60 | > 6.60
5 | O=C(CCc1c(-c2ccccc2)[nH]c2c(F)c(F)c(F)cc12)N[C@@H]1C(=O)NC[C@H]1O | > 6.60 | > 6.60
6 | Cc1cc(-c2[nH]c3ccccc3c2CCC(=O)N[C@@H]2C(=O)NC[C@H]2O)ccc1F | > 6.60 | > 6.60
7 | O=C(CCc1c(-c2ccc(F)cc2)[nH]c2ccccc12)N[C@@H]1C(=O)NC[C@H]1O | > 6.60 | > 6.60
8 | O=C(CCc1c(-c2ccc(OC(F)(F)F)cc2)[nH]c2ccccc12)N[C@@H]1C(=O)NC[C@H]1O | > 6.60 | > 6.60
9 | O=C(CCc1c(-c2ccc(F)cc2)[nH]c2c(F)c(F)ccc12)N[C@@H]1C(=O)NC[C@H]1O | > 6.60 | > 6.60
10 | O=C1NC[C@@H](O)[C@@H]1NC(=O)C(F)(F)Cc1c(-c2ccc(F)cc2)[nH]c2c(F)cc(F)cc12 | > 6.60 | > 6.60
11 | O=C(CCc1c(-c2ccc(C(F)(F)F)cc2)[nH]c2ccccc12)N[C@@H]1C(=O)NC[C@H]1O | > 6.60 | > 6.60
12 | O=C(CCc1c(-c2ccccc2)[nH]c2cccc(F)c12)N[C@@H]1C(=O)NC[C@H]1O | 6.60 | > 6.60
13 | O=C(CCc1c(-c2ccccc2)[nH]c2c(Br)cccc12)N[C@@H]1C(=O)NC[C@H]1O | > 6.60 | > 6.60
14 | Cc1ccc(-c2[nH]c3ccccc3c2CCC(=O)N[C@@H]2C(=O)NC[C@H]2O)cc1F | > 6.60 | > 6.60
15 | O=C(CCc1c(-c2ccc(F)cc2)[nH]c2ccc(C(F)(F)F)cc12)N[C@@H]1C(=O)NC[C@H]1O | > 6.60 | > 6.60
16 | O=C(CCc1c(-c2ccc(F)cc2)[nH]c2c(F)cccc12)N[C@H]1CCNC1=O | > 6.60 | > 6.60
17 | O=C(CCc1c(-c2ccc(F)cc2)[nH]c2c(Cl)cccc12)N[C@@H]1C(=O)NC[C@H]1O | > 6.60 | > 6.60
18 | O=C(CCc1c(-c2ccccc2)[nH]c2c(C(F)(F)F)cccc12)N[C@@H]1C(=O)NC[C@H]1O | < 6.00 | 6.60
19 | Cc1ccc(-c2[nH]c3ccccc3c2CCC(=O)N[C@@H]2C(=O)NC[C@H]2O)c(F)c1 | > 6.60 | > 6.60
20 | Cc1c(F)c(F)cc2c(CCC(=O)N[C@@H]3C(=O)NC[C@H]3O)c(-c3ccccc3)[nH]c12 | > 6.60 | > 6.60
21 | O=C(CCc1c(-c2ccc(F)cc2)[nH]c2ccc(OCc3ccccc3)cc12)N[C@H]1CCNC1=O | 6.60 | 6.60
22 | CN(C(=O)CCc1c(-c2ccc(F)cc2)[nH]c2ccc(F)cc12)C1CCNC1=O (stereo not given) | 6.60 | 6.60
23 | O=C(CCc1c(-c2ccccc2)[nH]c2ccc(F)cc12)N[C@@H]1C(=O)NC[C@H]1O | > 6.60 | > 6.60
24 | O=C(CCc1c(-c2cccc(F)c2)[nH]c2c(F)cc(F)cc12)N[C@@H]1C(=O)NC[C@H]1O | > 6.60 | > 6.60
25 | [2H]C([2H])(C(=O)N[C@@H]1C(=O)NC[C@H]1O)C([2H])([2H])c1c(-c2ccc(F)cc2)[nH]c2c(F)cc(F)cc12 | > 6.60 | > 6.60

Row | Structure (SMILES) | pIC50 [1] | pIC50 (Apolipoprotein L1)
26 | O=C(CCc1c(-c2ccccc2)[nH]c2c(F)c(F)ccc12)N[C@@H]1C(=O)NC[C@H]1O | > 6.60 | > 6.60
27 | O=C(CCc1c(-c2ccccc2)[nH]c2cc(F)cc(F)c12)N[C@@H]1C(=O)NC[C@H]1O | > 6.60 | > 6.60
28 | N#Cc1ccc(-c2[nH]c3ccccc3c2CCC(=O)N[C@@H]2C(=O)NC[C@H]2O)cc1 | > 6.60 | > 6.60
29 | O=C(CCc1c(-c2ccc(F)cc2)[nH]c2c(Cl)cccc12)N[C@H]1CCNC1=O | > 6.60 | > 6.60
30 | O=C(CCc1c(-c2ccc(Cl)cc2)[nH]c2ccccc12)N[C@@H]1C(=O)NC[C@H]1O | > 6.60 | > 6.60
31 | O=C(CCc1c(-c2cc(F)cc(F)c2)[nH]c2ccccc12)N[C@@H]1C(=O)NC[C@H]1O | 6.60 | 6.60
32 | O=C(CCc1c(-c2ccc(F)cc2)[nH]c2ccc(F)cc12)N[C@@H]1CCNC1=O | 6.60 | 6.60
33 | Cc1ccc(-c2[nH]c3ccccc3c2CCC(=O)N[C@@H]2C(=O)NC[C@H]2O)cc1 | > 6.60 | > 6.60
34 | O=C(CCc1c(-c2ccc(F)c(F)c2)[nH]c2ccccc12)N[C@@H]1C(=O)NC[C@H]1O | > 6.60 | > 6.60
35 | O=C(CCc1c(-c2ccc(F)c(F)c2)[nH]c2c(F)cc(F)cc12)N[C@@H]1C(=O)NC[C@H]1O | > 6.60 | > 6.60
36 | O=C(CCc1c(-c2ccc(F)cc2)[nH]c2c(F)cccc12)N[C@@H]1C(=O)NC[C@H]1O | > 6.60 | > 6.60
37 | O=C(CCc1c(-c2ccc(F)cc2)[nH]c2c(F)cc(C(F)(F)F)cc12)N[C@@H]1C(=O)NC[C@H]1O | > 6.60 | > 6.60
38 | O=C(CCc1c(-c2ccc(F)cc2)[nH]c2ccc(F)cc12)NC1CCNC1=O (stereo not given) | > 6.60 | > 6.60
39 | O=C(CCc1c(-c2ccc(C(F)F)cc2)[nH]c2ccccc12)N[C@@H]1C(=O)NC[C@H]1O | > 6.60 | > 6.60
40 | O=C(CCc1c(-c2ccccc2)[nH]c2ccccc12)N[C@@H]1C(=O)NC[C@H]1O | > 6.60 | > 6.60
41 | O=C(CCc1c(-c2ccccc2)[nH]c2ccc(F)cc12)N[C@H]1CCNC1=O | > 6.60 | > 6.60
42 | O=C(CCc1c(-c2ccc(OC(F)F)cc2)[nH]c2c(F)cc(F)cc12)N[C@@H]1C(=O)NC[C@H]1O | > 6.60 | > 6.60
43 | [2H]C(C(=O)N[C@@H]1C(=O)NC[C@H]1O)C([2H])c1c(-c2ccc(F)cc2)[nH]c2c(F)cc(F)cc12 (stereo not given in full) | > 6.60 | > 6.60
44 | O=C(CCc1c(-c2ccc(F)cc2)[nH]c2c(F)ccc(F)c12)N[C@H]1CCNC1=O | < 6.00 | < 6.00
45 | O=C(CCc1c(-c2ccc(F)cc2)[nH]c2ccc(O)cc12)N[C@H]1CCNC1=O | < 6.00 | < 6.00
46 | Cc1c(F)c(F)cc2c(CCC(=O)N[C@@H]3C(=O)NC[C@H]3O)c(-c3ccc(F)cc3)[nH]c12 | > 6.60 | > 6.60
47 | O=C(CCc1c(-c2ccc(Cl)c(F)c2)[nH]c2ccccc12)N[C@@H]1C(=O)NC[C@H]1O | > 6.60 | > 6.60
48 | O=C(CCc1c(-c2ccccc2)[nH]c2cc(F)ccc12)N[C@@H]1C(=O)NC[C@H]1O | > 6.60 | > 6.60
49 | O=C(CCc1c(-c2ccc(F)cc2)[nH]c2c(OC(F)F)cc(F)cc12)N[C@@H]1C(=O)NC[C@H]1O | 6.60 | > 6.60
50 | O=C(CCc1c(-c2ccc(F)cc2)[nH]c2c(F)cc(F)cc12)N[C@@H]1C(=O)NC[C@H]1O [INAXAPLIN] | > 6.60 | > 6.60
